Literature values as cited in US7169586B2, “Mutant N-acetylglutamate synthase and method for L-arginine production” (Ajinomoto Co., Inc., priority 2000, dated 2007).
pKi: −log10 of the molar value.

How the values were obtained:
NAGS = NAGS (Escherichia coli, UniProt P0A6C5); conditions: Leisinger and Haas 1975; read-out: Ki, inhibition of NAGS activity
argA expression = conditions: Cunin et al. 1986; Leisinger and Haas 1975

Sequence of NAGS (P0A6C5 whole entry): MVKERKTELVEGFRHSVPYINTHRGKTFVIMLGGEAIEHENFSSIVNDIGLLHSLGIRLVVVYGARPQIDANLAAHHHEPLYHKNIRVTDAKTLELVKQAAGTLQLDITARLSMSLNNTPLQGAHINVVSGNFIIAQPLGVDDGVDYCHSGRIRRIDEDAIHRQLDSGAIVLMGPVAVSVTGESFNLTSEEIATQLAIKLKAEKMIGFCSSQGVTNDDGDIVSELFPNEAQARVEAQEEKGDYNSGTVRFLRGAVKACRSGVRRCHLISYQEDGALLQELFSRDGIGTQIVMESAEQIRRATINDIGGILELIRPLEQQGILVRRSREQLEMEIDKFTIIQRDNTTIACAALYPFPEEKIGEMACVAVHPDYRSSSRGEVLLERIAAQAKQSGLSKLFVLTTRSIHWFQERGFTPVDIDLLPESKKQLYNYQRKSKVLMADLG

Compound: N=C(N)NCCC[C@H](N)C(=O)O [L-Arginine]
- pKi (NAGS): 4.70
- repression ratio of argA expression (argA expression): greater than 250
